Test system: HeyA8 cells
Experiment: In vitro anoikis (poly-HEMA plates, Annexin V-FITC/PI)
Format: cell-based, human
Conditions: HeyA8 cells in suspension, 72 h
Description: In vitro anoikis. Cells were transfected with control or ZNF304 siRNA and transferred to 6-well tissue culture plates that were coated with polyhydroxyethylmethacrylate, and cells were cultured in these plates for 72 h at 37° C. in a 5% CO2 atmosphere. Cells were washed with PBS and were stained with Annexin V-FITC and PI solution (50 μg/ml) containing RNase A (25 μg/ml). After incubating the pellets for 30 min at 37° C., cell viability was analyzed by flow cytometry.
β1 integrin confers a survival advantage to tumor cells (Vachon, 2011). […] Therefore, the anoikis rates were examined at 24, 48, and 72 h in detached HeyA8 cells in vitro using polyhydroxyethylmethacrylate (poly-HEMA)-coated tissue culture plates that promote anchorage-independent cell growth (Sood et al., 2010).

Control siRNA: non-silencing siRNA without homology to any known human mRNA, UUCUCCGAACGUGUCACGUUU (SEQ ID NO: 15) (listed as RNA, chemistry not given here)
rate of anoikis: 60%

Reference: patent US10874622B2, “Dual assembly nanoparticles” (BOARD OF REGENTS, THE UNIVERSITY OF TEXAS SYSTEM, priority 2015, dated 2020)
